Data on 4 compounds can be found in US20210348164A1, “ENDOGENOUS CYTOPLASMIC ALU COMPLEMENTARY DNA IN AGE-RELATED MACULAR DEGENERATION” (University of Virginia Patent Foundation, priority 2018, published 2021).

Entries after “also recorded” stand apart in the source; their conditions may differ.

The subject of one data set is NLRP3 inflammasome. Kind of data set: Caspase-1 activation in bone marrow-derived macrophages treated with LPS and ATP (immunoblot). The format is cell-based. The conditions noted are these: primary mouse BMDM; LPS and ATP stimulation. The method, then:
Western blotting. Cells and tissue were homogenized in RIPA buffer (Sigma-Aldrich) with protease and phosphatase inhibitors (Roche) or lysed directly in Laemmli buffer. Protein concentration was determined using Pierce BCA Protein Assay Kit (Thermo Fisher Scientific). Equal quantities of protein (10-50 μg) prepared in Laemmli buffer were resolved by SDS-PAGE on NOVEX® Tris-Glycine Gels (Invitrogen), or MINI-PROTEAN® TGX™ Precast Protein Gels (Bio-Rad Laboratories, Inc., Hercules, Calif., United States of America) and transferred onto Immobilon-FL PVDF membranes (0.2 or 0.45 μm; MilliporeSigma, Burlington, Mass., United States of America). The transferred membranes were blocked in ODYSSEY® Blocking Buffer (PBS) for 1 hour at room temperature and then incubated with primary antibody at 4° C. overnight. Immunoreactive bands were visualized using species-specific secondary antibodies conjugated with IRDYE®. The blot images were captured on ODYSSEY® imaging systems. […]
(A western blot detects proteins with antibodies after separation by electrophoresis.)

The test system of data set [1] is Alu cDNA in primary human RPE cells. Description: Alu cDNA in primary human RPE cells (Alu c-PCR, real-time PCR, in situ hybridization, equator blotting). The format is cell-based. To be noted: primary human RPE cells exposed to Alu RNA, heat shock, or DICER1 AS; NNRTIs at high doses. The method, then: Cell culture and transfection. Primary mouse and human RPE cells were isolated as previously described (Kerur et al., 2018). All cells were maintained at 37° C. in a 5% CO2 environment. Mouse RPE cells were cultured in DMEM supplemented with 20% FBS and penicillin/streptomycin antibiotics at standard concentrations; primary human RPE cells were maintained in DMEM supplemented with 10% FBS and antibiotics. The human RPE cell line ARPE19 was cultured as previously described (Kerur et al., 2018) and maintained in DMEM-F12 containing penicillin/streptomycin, Fungizone, and gentamicin. HEK293T cells were cultured in DMEM with 10% fetal bovine serum (FBS) with 100 U/ml penicillin/streptomycin and 2 mM L-glutamine. Primary wild-type mouse bone marrow-derived macrophages (BMDMs) were isolated, and cultured in Iscove's Modified Dulbecco's Medium (IMDM) supplemented with 30% L929 supernatant containing macrophage-stimulating factor, nonessential amino acids, sodium pyruvate, 10% FBS and antibiotics, 50 μM β-mercaptoethanol (Seo et al., 2015), and serum starved in IMDM with 1% FBS and 100 U/ml penicillin/streptomycin overnight prior to LPS stimulation. NRTIs or NNRTIs were added 30 minutes prior to LPS stimulation and again 30 minutes prior to ATP activation. LPS (100 ng/mL) was added for 3-4 hours prior to the addition of ATP. Cell lysates were collected 30 minutes after addition of ATP (5 mM). Primary human subcutaneous pre-adipocytes (Catalogue No. PCS-210-010, ATCC, Manassas, Va., United States of America) and primary human dermal fibroblasts (Catalogue No. PCS-201-012, ATCC) were grown in fibroblast basal medium with fibroblast growth kit for low serum (ATCC).
Umbilical artery vascular smooth muscle cells (Catalogue No. CC-2579, Lonza, Morristown, N.J., United States of America) were grown in SMGM™-2 Smooth Muscle Growth Medium-2 BULLETKIT™ (Lonza). Primary human skeletal myoblasts (Catalogue No. A11440, Thermo Fisher Scientific) were grown in DMEM with 2% horse serum. Primary human epidermal keratinocytes (Catalogue NO. CO215C, Thermo Fisher Scientific) were grown in EPILIFE® Medium (Thermo Fisher Scientific). Human umbilical vein endothelial cells (HUVEC) were grown in HUVEC EGM™-2 Media (Lonza). Primary human peripheral blood mononuclear cells (Catalogue NO. PCS-800-011, ATCC) were directly used without culture for experiments. RPMI 1640 medium with 10% human serum with human GM-CSF (Miltenyi Biotec Inc., Auburn, Calif., United States of America) was used as media during the experiment. Transfections were performed according to the manufacturer's instructions (LIPOFECTAMINE® 2000, Invitrogen). For transfection of primary human peripheral blood mononuclear cells, HiPerFect Transfection Reagent (Qiagen) was used as previously described (Troegeler et al., 2014). NRTIs were administered 60 minutes before transfection and added again upon replacement of media at 8 hours. To induce acid injury or osmotic stress, primary human RPE cells were treated with HCl (pH 4.0 media) or H2O for 30 minutes, 1 hour, and 2 hours at 37° C. in 5% CO2, respectively. NIH3T3 Tet-ON cells were cultured in DMEM with 10% tetracycline-free fetal bovine serum (FBS) with 100 U/ml penicillin/streptomycin. NIH3T3 Tet-ON cells were transfected with pLD401 (see Taylor et al., 2013; gift of J. D. Boeke, Institute for Systems Genetics, NYU Langone Health, New York, New York, United States of America) and human L1 ORF1p abundance was monitored after 24 hours of doxycycline induction. […]

For data set [2], the system named is Alu RNA-induced RPE degeneration. Description: Alu RNA-induced RPE degeneration in wild-type mice (fundus photography, ZO-1 flat mounts). It counts as in vivo, mouse. To be noted: WT mice; intravitreous; low (25 μmol) doses.
Another data set addresses L1 reverse transcriptase (Homo sapiens, UniProt O00370). The conditions noted are these: Merluzzi et al., 1990; Dai et al., 2011; cited from earlier work.

Sequence of L1 reverse transcriptase (O00370 whole entry, looked up): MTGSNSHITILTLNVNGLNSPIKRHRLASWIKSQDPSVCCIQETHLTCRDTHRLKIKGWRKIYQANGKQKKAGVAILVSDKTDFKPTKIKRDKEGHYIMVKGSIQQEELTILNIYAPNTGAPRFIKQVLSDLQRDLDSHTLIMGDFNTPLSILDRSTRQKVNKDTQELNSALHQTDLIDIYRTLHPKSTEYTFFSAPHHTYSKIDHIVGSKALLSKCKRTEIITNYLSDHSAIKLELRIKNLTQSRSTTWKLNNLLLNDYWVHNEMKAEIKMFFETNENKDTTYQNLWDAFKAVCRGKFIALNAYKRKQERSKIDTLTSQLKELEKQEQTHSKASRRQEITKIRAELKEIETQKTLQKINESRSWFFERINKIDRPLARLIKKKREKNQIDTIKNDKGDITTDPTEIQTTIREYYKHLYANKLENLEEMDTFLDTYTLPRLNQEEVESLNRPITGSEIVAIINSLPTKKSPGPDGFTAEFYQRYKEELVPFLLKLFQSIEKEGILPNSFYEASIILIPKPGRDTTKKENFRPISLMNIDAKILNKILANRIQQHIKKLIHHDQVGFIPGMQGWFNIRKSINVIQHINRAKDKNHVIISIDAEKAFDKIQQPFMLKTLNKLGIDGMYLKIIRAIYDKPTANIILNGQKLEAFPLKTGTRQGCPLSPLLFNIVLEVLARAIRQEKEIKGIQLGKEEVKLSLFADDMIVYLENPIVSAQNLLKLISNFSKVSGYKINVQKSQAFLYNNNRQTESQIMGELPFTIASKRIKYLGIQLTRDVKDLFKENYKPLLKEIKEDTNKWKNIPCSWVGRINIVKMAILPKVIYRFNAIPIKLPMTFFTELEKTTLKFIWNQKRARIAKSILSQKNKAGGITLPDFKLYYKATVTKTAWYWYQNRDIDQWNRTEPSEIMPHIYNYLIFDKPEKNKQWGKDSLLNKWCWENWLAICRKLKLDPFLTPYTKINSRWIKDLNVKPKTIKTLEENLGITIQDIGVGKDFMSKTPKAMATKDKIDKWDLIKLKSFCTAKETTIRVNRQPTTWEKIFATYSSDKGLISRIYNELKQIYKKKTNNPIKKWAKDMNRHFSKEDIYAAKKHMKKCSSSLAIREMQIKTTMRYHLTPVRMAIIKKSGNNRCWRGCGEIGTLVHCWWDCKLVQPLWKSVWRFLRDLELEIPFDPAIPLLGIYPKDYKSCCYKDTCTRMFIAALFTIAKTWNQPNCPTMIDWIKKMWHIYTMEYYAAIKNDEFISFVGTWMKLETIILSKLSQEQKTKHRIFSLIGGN

As for `CC(C)Nc1cccnc1N1CCN(C(=O)c2cc3cc(NS(C)(=O)=O)ccc3[nH]2)CC1` [DLV, delavirdine], the “caspase-1 activation / NLRP3 inflammasome activation” value in the data set with NLRP3 inflammasome is “did not inhibit NLRP3 inflammasome activation”. Moreover, in data set [1], the “Alu cDNA induction” value is “prevented Alu cDNA synthesis; also recorded: reduced”. Moreover, the “Alu RNA-induced RPE degeneration” value in data set [2] is listed as “did not block Alu RNA-induced RPE degeneration at low doses”. The “inhibition of L1 reverse transcriptase” value at L1 reverse transcriptase was “inhibit L1 reverse transcriptase at high doses”.
Consider `O=C1Nc2ccc(Cl)cc2[C@@](C#CC2CC2)(C(F)(F)F)O1` [EFV, efavirenz], for which the “caspase-1 activation / NLRP3 inflammasome activation” value in the data set with NLRP3 inflammasome was “did not inhibit NLRP3 inflammasome activation”. Besides, the “Alu cDNA induction” value in data set [1] is on record as “prevented Alu cDNA synthesis; also recorded: reduced”. For the same compound, the “Alu RNA-induced RPE degeneration” value in data set [2] is “did not block Alu RNA-induced RPE degeneration at low doses”. Besides, on L1 reverse transcriptase, the “inhibition of L1 reverse transcriptase” value is reported as “inhibit L1 reverse transcriptase at high doses”.
Consider `Cc1ccnc2c1NC(=O)c1cccnc1N2C1CC1` [NVP, nevirapine], for which the “caspase-1 activation / NLRP3 inflammasome activation” value in the data set on NLRP3 inflammasome is given as “does not inhibit”. The “Alu cDNA induction” value in data set [1] was “did not prevent Alu cDNA synthesis”. Also, the “Alu RNA-induced RPE degeneration” value in data set [2] is “did not prevent Alu RNA-induced RPE degeneration at low or high doses”. Further, the “inhibition of L1 reverse transcriptase” value at L1 reverse transcriptase was “does not inhibit L1 reverse transcriptase”.
As for “L1 siRNA: siRNA targeting L1; cholesterol-conjugated mouse L1 siRNA (SEQ ID NOs: 48 and 49) in vivo, human L1 siRNA sequences in human cells (chain 1 ACUAUUACUCUGAUACCTT; chain 2 UGUACUAAGGUCAAAUCTT; cholesterol conjugated, position not given here)”, the “Alu cDNA induction” value in data set [1] is “prevented the production of Alu cDNA; also recorded: reduced”.
